Reference: ChEMBL document CHEMBL1201862, “PubChem BioAssay data set” (2004)
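In this assay, cells in 96-well plates receive the compound at five concentrations for 48 hours. Endpoints are linearly interpolated between the surrounding concentrations. The concentration for 50% growth inhibition is given as GI50.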 The source made the active and inactive calls. No stated cut-off is given here; in the data, active = GI50 up to about 1.1 µM and inactive = higher.

What was measured:
Experiment in all cases: NCI anticancer screen, dose series, 48 h
786-0 = tested on: 786-0
CAKI-1 = tested on: CAKI-1
UACC-257 = tested on: UACC-257
HCT-15 = tested on: HCT-15
NCI-H226 = tested on: NCI-H226
UO-31 = tested on: UO-31
HT-29 = tested on: HT-29
MOLT-4 = tested on: MOLT-4
A498 = tested on: A498
HCT-116 = tested on: HCT-116
SN12C = tested on: SN12C
A549 = tested on: A549
UACC-62 = tested on: UACC-62
ACHN = tested on: ACHN
LOX IMVI = tested on: LOX IMVI
SF-268 = tested on: SF-268
NCI-H522 = tested on: NCI-H522
SK-MEL-28 = tested on: SK-MEL-28
OVCAR-3 = tested on: OVCAR-3
HCC 2998 = tested on: HCC 2998

Structure (SMILES)	GI50 (786-0)	GI50 (CAKI-1)	GI50 (UACC-257)	GI50 (HCT-15)	GI50 (NCI-H226)	GI50 (UO-31)	GI50 (HT-29)	GI50 (MOLT-4)	GI50 (A498)	GI50 (HCT-116)	GI50 (SN12C)	GI50 (A549)	GI50 (UACC-62)	GI50 (ACHN)	GI50 (LOX IMVI)	GI50 (SF-268)	GI50 (NCI-H522)	GI50 (SK-MEL-28)	GI50 (OVCAR-3)	GI50 (HCC 2998)
O=C(O)c1nnsc1-c1csnn1	> 100 µM (inactive)	> 100 µM (inactive)	> 100 µM (inactive)	> 100 µM	> 100 µM (inactive)	> 100 µM (inactive)	> 100 µM (inactive)	> 100 µM (inactive)	> 100 µM (inactive)	> 100 µM (inactive)	> 100 µM (inactive)	> 100 µM (inactive)	> 100 µM (inactive)	> 100 µM (inactive)	> 100 µM (inactive)	> 100 µM (inactive)	> 100 µM (inactive)	> 100 µM (inactive)	> 100 µM (inactive)	–
N#CC(c1ccccc1)(c1ccccc1)[C@@H](c1ccccc1)[C@H](Cc1ccccc1)NS(=O)(=O)c1ccccc1	> 100 µM (inactive)	> 100 µM (inactive)	> 100 µM (inactive)	> 100 µM	–	> 100 µM (inactive)	> 100 µM (inactive)	15.7 µM (inactive)	> 100 µM (inactive)	> 100 µM (inactive)	> 100 µM (inactive)	> 100 µM (inactive)	> 100 µM (inactive)	> 100 µM (inactive)	> 100 µM (inactive)	> 100 µM (inactive)	> 100 µM (inactive)	> 100 µM (inactive)	> 100 µM (inactive)	> 100 µM (inactive)
COC(=O)C(C(=O)OC)C1CCCC(=O)C1 (stereo not drawn)	> 100 µM (inactive)	–	> 100 µM (inactive)	> 100 µM	–	> 100 µM (inactive)	> 100 µM (inactive)	> 100 µM (inactive)	> 100 µM (inactive)	> 100 µM (inactive)	> 100 µM (inactive)	> 100 µM (inactive)	> 100 µM (inactive)	> 100 µM (inactive)	> 100 µM (inactive)	> 100 µM (inactive)	–	> 100 µM (inactive)	> 100 µM (inactive)	> 100 µM (inactive)
NC1=NC2=C(CCCC2)C(c2cccs2)S1 (stereo not drawn)	84.5 µM (inactive)	> 100 µM (inactive)	49.7 µM (inactive)	> 100 µM	–	5.43 µM (inactive)	> 100 µM (inactive)	36.8 µM (inactive)	72.6 µM (inactive)	> 100 µM (inactive)	> 100 µM (inactive)	93.3 µM (inactive)	> 100 µM (inactive)	> 100 µM (inactive)	–	95.1 µM (inactive)	27.9 µM (inactive)	> 100 µM (inactive)	59.8 µM (inactive)	> 100 µM (inactive)
CCCC1C(=O)CCc2c(OC)ccc(OC)c21 (stereo not drawn)	> 100 µM (inactive)	> 100 µM (inactive)	> 100 µM (inactive)	> 100 µM	–	17.1 µM (inactive)	> 100 µM (inactive)	49.1 µM (inactive)	> 100 µM (inactive)	51.9 µM (inactive)	> 100 µM (inactive)	> 100 µM (inactive)	> 100 µM (inactive)	> 100 µM (inactive)	> 100 µM (inactive)	91.8 µM (inactive)	–	–	73.6 µM (inactive)	> 100 µM (inactive)
Cc1cn(CC2=NCCCN2)c(=O)[nH]c1=O	> 100 µM (inactive)	–	> 100 µM (inactive)	> 100 µM	> 100 µM (inactive)	> 100 µM (inactive)	> 100 µM (inactive)	> 100 µM (inactive)	> 100 µM (inactive)	> 100 µM (inactive)	> 100 µM (inactive)	> 100 µM (inactive)	> 100 µM (inactive)	> 100 µM (inactive)	> 100 µM (inactive)	> 100 µM (inactive)	> 100 µM (inactive)	> 100 µM (inactive)	–	> 100 µM (inactive)
CC1(C)[C@H]2CC[C@@]13C(=O)N1C(=O)O[C@@H]([C@H]1Cl)C(Cl)(COCc1ccccc1)C(=O)OCCO[C@H]3C2 (stereo partly drawn)	70 µM (inactive)	> 100 µM (inactive)	48.9 µM (inactive)	40.8 µM	–	96.4 µM (inactive)	35.6 µM (inactive)	21 µM (inactive)	> 100 µM (inactive)	37.8 µM (inactive)	–	54.3 µM (inactive)	83.6 µM (inactive)	70.6 µM (inactive)	74 µM (inactive)	> 100 µM (inactive)	34.8 µM (inactive)	> 100 µM (inactive)	54.2 µM (inactive)	57.3 µM (inactive)
CC(C)(C)OC(=O)NC1CCCC1C(=O)C1=CCCC1 (stereo not drawn)	> 100 µM (inactive)	–	> 100 µM (inactive)	59 µM	> 100 µM (inactive)	–	> 100 µM (inactive)	> 100 µM (inactive)	> 100 µM (inactive)	97.3 µM (inactive)	53.3 µM (inactive)	> 100 µM (inactive)	70.1 µM (inactive)	> 100 µM (inactive)	50.6 µM (inactive)	> 100 µM (inactive)	–	> 100 µM (inactive)	> 100 µM (inactive)	88.7 µM (inactive)
